# From patent US20260284275A1, “NANOGEL COMPRISING BIOACTIVE MOLECULES, THERAPEUTIC MOLECULES OR DRUGS TOGETHER WITH AN AMPHIPHILIC MOLECULE” (CM4CURE S.A., priority 2023, published 2026)
# Legend:
# [1] = system: S. aureus (ATCC BAA-1556, MRSA); assay: Real-time microcalorimetry (Calscreener) of bacterial growth in TSB; assay type: cell-based; conditions: for bacterial growth (heat flow): 24 h, 37° C.
# Description: S. aureus (ATCC BAA-1556, MRSA) was grown overnight in TSB (tryptic soy broth) medium, before being diluted 1×10^4 fold in fresh TSB. Subsequently […] aliquots of diluted bacteria suspensions were supplemented with 10 μg/mL and 20 μg/mL of respectively triafluocyl (Polpharma) alone or in the mixture with TPGS (MedChemExpress LLC (Europe)) (1:1 w/w). Both Triafluocyl and TPGS were prepared in absolute ethanol as already mentioned in the above examples and were refrigerated as master stocks in absolute ethanol. Triafluocyl, TPGS or ethanol (0.6% final conc.) as a vehicle were added to the bacterial suspensions to obtain the concentrations (10 μg/mL and 20 μg/m) followed by a brief vortexing. Bacterial aliquots were then distributed in the dedicated non-activated inserts of a 48-well plate and grown for 24 h under static conditions at 37° C. using Calscreener technology to measure bacterial growth and metabolic activity in Real-Time as described in https://cordis.europa.eu/project/id/784514.
# In FIG. 6, the real-time microcalorimetric measurements of bacterial metabolic activity is expressed as the heat flow and represents bacterial growth in TSB medium. Solid line stands for control bacteria with a vehicle (0.6% ethanol); thick dashed line—bacteria treated with 10 μg/mL of triafluocyl; thick dotted line—bacteria treated with 20 μg/mL of triafluocyl; thin dashed line—bacteria treated with both triafluocyl and TPGS (10 μg/mL:10 μg/mL); thin dotted line—bacteria treated with both triafluocyl and TPGS (20 μg/mL:20 μg/mL).
# [2] = system: S. aureus (MRSA, ATCC 6538); assay: Real-time microcalorimetry of bacterial growth in liquid medium; assay type: cell-based; conditions: Fluometacyl 10 or 20 μg/mL with hydroxypropyl-β-cyclodextrin 42 μg/mL, 24 h
# Description: S. aureus (MRSA, ATCC 6538) was grown overnight in TSB (tryptic soy broth) medium, before being diluted 1×10^7 fold in the fresh TSB. Subsequently […] aliquots of diluted bacteria suspensions were supplemented with Fluometacyl® (10 or 20 μg/mL) or mixture of Fluometacyl® (10 or 20 μg/mL) and hydroxypropyl-β-cyclodextrin (42 μg/mL). Subsequently 300 μL of suspensions were placed into the dedicated non-activated inserts of a 48-well plate and allowed for growing for 24 h under static conditions at 37 C using Calscreener.
# Curve A—control bacterial growth for S. aureus MRSA 10^−6; Curve B—Bacteria with Fluometacyl® (10 μg/mL); Curve C—Bacteria with Fluometacyl® (10 μg/mL) and hydroxypropyl-β-cyclodextrin (42 μg/mL); Curve D—Bacteria with Fluometacyl® (20 μg/mL); Curve E—Bacteria with Fluometacyl® (20 μg/mL) and hydroxypropyl-β-cyclodextrin (42 μg/mL).
compound,measurement,setting,value
CCCSc1nc(N[C@@H]2C[C@H]2c2ccc(F)c(F)c2)c2nnn([C@@H]3C[C@H](OCCO)[C@@H](O)[C@H]3O)c2n1 [Triafluocyl],bacterial growth (heat flow),[1]; 10 μg/mL,significantly reduces
same,bacterial growth (heat flow),[1]; 20 μg/mL,fully inhibited
CC(O)COC[C@H]1O[C@@H]2O[C@H]3[C@H](O)[C@@H](O)[C@@H](O[C@H]4[C@H](O)[C@@H](O)[C@@H](O[C@H]5[C@H](O)[C@@H](O)[C@@H](O[C@H]6[C@H](O)[C@@H](O)[C@@H](O[C@H]7[C@H](O)[C@@H](O)[C@@H](O[C@H]8[C@H](O)[C@@H](O)[C@@H](O[C@H]1[C@H](O)[C@H]2O)O[C@@H]8COCC(C)O)O[C@@H]7COCC(C)O)O[C@@H]6COCC(C)O)O[C@@H]5COCC(C)O)O[C@@H]4COCC(C)O)O[C@@H]3COCC(C)O (stereo partly drawn) [hydroxypropyl-β-cyclodextrin],effect on the antibacterial activity of Fluometacyl in solution,[2],didn't impair
D-α-tocopheryl polyethylene glycol succinate [TPGS],effect of added TPGS on the inhibitory effect of triafluocyl on bacterial growth,"[1]; TPGS at equivalent amount (1:1 w/w) to triafluocyl, 10 and 20 μg/mL",significantly reduced the inhibitory effect
